Experimental findings from ChEMBL document CHEMBL5210307, “Affinity Biochemical Literature for EUbOPEN Chemogenomics Library wave 3” (2023) are described below.

One experiment concerns the target Ephrin type-B receptor 4 (Homo sapiens, UniProt P54760). In words: Affinity Biochemical interaction (Microscale thermophoresis (MST) assay) EUB0000143b EPHB4. The arrangement: mode of action Inhibitor, recommended concentration 100 nM. (In general: In MST a laser heats a spot of the sample, and binding alters the fluorescence response.)
For experiment [1], the target named is Transient receptor potential cation channel subfamily A member 1 (Homo sapiens, UniProt O75762). In words: Affinity Biochemical interaction (FLIPR-based Ca2+ assay (activated by 30 µM AITC)) EUB0000308b TRPA1. The arrangement: mode of action Antagonist, recommended concentration 1 uM.
Experiment [2] concerns the target Histone acetyltransferase p300 (Homo sapiens, UniProt Q09472).
The target of experiment [3] is Methionine aminopeptidase 2 (Homo sapiens, UniProt P50579). Kind of experiment: Affinity Biochemical interaction (Biochemical activity assay (addition of Mn)) EUB0000303b METAP2. The arrangement: mode of action Inhibitor, recommended concentration 1 uM.
For experiment [4], the target named is Tyrosine-protein kinase Mer (Homo sapiens, UniProt Q12866).
In experiment [5] the target is Oxidized purine nucleoside triphosphate hydrolase (Homo sapiens, UniProt P36639). Kind of experiment: Affinity Biochemical interaction (PPiLight Biochemical Assay (full-length human NUDT1)) EUB0000587a NUDT1.
Experiment [6] deals with BMP-2-inducible protein kinase (Homo sapiens, UniProt Q9NSY1). In words: Affinity Biochemical interaction (Competition binding assay) EUB0000166b BMP2K. The arrangement: mode of action Negative control for SGC-AAK1-1, recommended concentration 1 uM.
Experiment [7] concerns the target AP2-associated protein kinase 1 (Homo sapiens, UniProt Q2M2I8). In words: Affinity Biochemical interaction (Competition binding assay) EUB0000166b AAK1. The arrangement: mode of action Negative control for SGC-AAK1-1, recommended concentration 1 uM.
For experiment [8], the target named is High affinity nerve growth factor receptor (Homo sapiens, UniProt P04629). In words: Affinity Biochemical interaction (Radiometric assay (10 µM ATP, Reaction Biology)) EUB0000156b NTRK1. The arrangement: mode of action Negative control for DDR-TRK-1 (D2202-1), recommended concentration 1 uM.
Experiment [9] deals with NT-3 growth factor receptor (Homo sapiens, UniProt Q16288). Kind of experiment: Affinity Biochemical interaction (Radiometric assay (10 µM ATP, Reaction Biology)) EUB0000156b NTRK3. The arrangement: mode of action Negative control for DDR-TRK-1 (D2202-1), recommended concentration 1 uM.
In experiment [10] the target is Discoidin domain-containing receptor 2 (Homo sapiens, UniProt Q16832). In words: Affinity Biochemical interaction (Radiometric assay (10 µM ATP, Reaction Biology)) EUB0000156b DDR2. The arrangement: mode of action Negative control for DDR-TRK-1 (D2202-1), recommended concentration 1 uM.
Experiment [11] concerns the target Epithelial discoidin domain-containing receptor 1 (Homo sapiens, UniProt Q08345). Kind of experiment: Affinity Biochemical interaction (Radiometric assay (10 µM ATP, Reaction Biology)) EUB0000156b DDR1. The arrangement: mode of action Negative control for DDR-TRK-1 (D2202-1), recommended concentration 1 uM.
Experiment [12] concerns the target Histone acetyltransferase KAT2B (Homo sapiens, UniProt Q92831). In words: Affinity Biochemical interaction (BROMOscan assay (DiscoverX)) EUB0000218c KAT2B. The arrangement: mode of action Inhibitor, recommended concentration 1 uM.
The target in experiment [13] is Dual specificity protein kinase CLK4 (Homo sapiens, UniProt Q9HAZ1). In words: Affinity Biochemical interaction (NanoBRET assay (in HEK293T cells)) EUB0000009b CLK4. Type of experiment: cell-based. The arrangement: mode of action Negative control for MU1210, recommended concentration 1 uM.
In experiment [14] the target is Dual specificity protein kinase CLK1 (Homo sapiens, UniProt P49759). Kind of experiment: Affinity Biochemical interaction (NanoBRET assay (in HEK293T cells)) EUB0000009b CLK1. The arrangement: mode of action Negative control for MU1210, recommended concentration 1 uM. It counts as cell-based. Background: In BRET a luciferase serves as donor, and the signal depends on an acceptor being close.

Experiment [15] concerns the target Dual specificity protein kinase CLK2 (Homo sapiens, UniProt P49760). Kind of experiment: Affinity Biochemical interaction (NanoBRET assay (in HEK293T cells)) EUB0000009b CLK2. The arrangement: mode of action Negative control for MU1210, recommended concentration 1 uM. It counts as cell-based.
Experiment [16] can be described thus: Affinity Biochemical interaction (FLIPR assay) EUB0000337aCl P2RY14.
Experiment [17] addresses T1, Protein AF-9 (Homo sapiens, UniProt P42568).
T1 sequence (P42568 whole entry): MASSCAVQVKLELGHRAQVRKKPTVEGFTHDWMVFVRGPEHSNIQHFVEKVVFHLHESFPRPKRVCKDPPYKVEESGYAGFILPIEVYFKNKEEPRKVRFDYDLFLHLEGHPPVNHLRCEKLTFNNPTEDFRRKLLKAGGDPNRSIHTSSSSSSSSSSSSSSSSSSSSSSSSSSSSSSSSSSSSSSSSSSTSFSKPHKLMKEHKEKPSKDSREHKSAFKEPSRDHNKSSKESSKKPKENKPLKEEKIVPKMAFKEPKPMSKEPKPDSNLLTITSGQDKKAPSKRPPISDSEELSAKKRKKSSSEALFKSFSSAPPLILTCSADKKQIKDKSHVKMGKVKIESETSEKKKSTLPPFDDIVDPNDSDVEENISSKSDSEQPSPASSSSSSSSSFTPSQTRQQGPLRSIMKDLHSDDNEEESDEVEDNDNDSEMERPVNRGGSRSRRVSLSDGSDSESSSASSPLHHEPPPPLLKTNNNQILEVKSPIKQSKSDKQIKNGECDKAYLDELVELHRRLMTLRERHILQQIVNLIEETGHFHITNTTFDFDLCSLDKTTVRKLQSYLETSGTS

The target of experiment [18] is Alpha-1D adrenergic receptor (Homo sapiens, UniProt P25100). Kind of experiment: Affinity Biochemical interaction (Binding assay) EUB0000300bCl ADRA1D. The arrangement: mode of action Antagonist, recommended concentration 1 uM.
In experiment [19] the target is RAC-alpha serine/threonine-protein kinase (Homo sapiens, UniProt P31749). In words: Affinity Biochemical interaction (HTFR assay) EUB0000721a AKT1.
The target in experiment [20] is Nucleosome-remodeling factor subunit BPTF (Homo sapiens, UniProt Q12830). In words: Affinity Biochemical interaction (BioLayer Interferometry assay (BLI)) EUB0000254b BPTF. The arrangement: mode of action Negative control for NVS-BPTF-1, recommended concentration 1 uM. Background: Biolayer interferometry detects binding as a change in optical thickness at a sensor tip.

Experiment [21] concerns the target Peripheral plasma membrane protein CASK (Homo sapiens, UniProt O14936). Kind of experiment: Affinity Biochemical interaction (Isothermal titration calorimetry (ITC)) EUB0000723a CASK. The arrangement: mode of action Inhibitor, recommended concentration 1 uM.
Experiment [22] deals with T1, Protein AF-9. In words: Affinity Biochemical interaction (HTRF-based inhibition assay) EUB0000732a MLLT3. The arrangement: mode of action Negative control for PFI-6, recommended concentration 1 uM.
In the next experiment the target is Protein ENL (Homo sapiens, UniProt Q03111). In words: Affinity Biochemical interaction (HTRF-based inhibition assay) EUB0000732a MLLT1. The arrangement: mode of action Negative control for PFI-6, recommended concentration 1 uM.
Chain of Protein ENL (Q03111 whole entry): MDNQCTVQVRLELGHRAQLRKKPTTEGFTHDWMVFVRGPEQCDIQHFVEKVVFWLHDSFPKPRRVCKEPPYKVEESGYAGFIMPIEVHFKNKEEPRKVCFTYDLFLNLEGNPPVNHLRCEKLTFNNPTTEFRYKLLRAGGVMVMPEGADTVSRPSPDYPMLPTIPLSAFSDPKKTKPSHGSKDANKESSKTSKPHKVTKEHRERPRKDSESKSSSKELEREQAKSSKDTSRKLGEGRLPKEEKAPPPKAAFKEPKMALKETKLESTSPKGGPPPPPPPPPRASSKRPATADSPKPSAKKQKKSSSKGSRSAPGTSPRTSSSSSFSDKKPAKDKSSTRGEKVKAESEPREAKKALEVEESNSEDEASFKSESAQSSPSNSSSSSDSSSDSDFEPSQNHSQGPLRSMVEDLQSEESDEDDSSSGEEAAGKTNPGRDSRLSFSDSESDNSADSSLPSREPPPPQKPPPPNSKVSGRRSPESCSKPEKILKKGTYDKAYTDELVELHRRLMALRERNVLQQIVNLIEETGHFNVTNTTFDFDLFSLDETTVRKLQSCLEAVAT

Chain of Ephrin type-B receptor 4 (P54760 whole entry): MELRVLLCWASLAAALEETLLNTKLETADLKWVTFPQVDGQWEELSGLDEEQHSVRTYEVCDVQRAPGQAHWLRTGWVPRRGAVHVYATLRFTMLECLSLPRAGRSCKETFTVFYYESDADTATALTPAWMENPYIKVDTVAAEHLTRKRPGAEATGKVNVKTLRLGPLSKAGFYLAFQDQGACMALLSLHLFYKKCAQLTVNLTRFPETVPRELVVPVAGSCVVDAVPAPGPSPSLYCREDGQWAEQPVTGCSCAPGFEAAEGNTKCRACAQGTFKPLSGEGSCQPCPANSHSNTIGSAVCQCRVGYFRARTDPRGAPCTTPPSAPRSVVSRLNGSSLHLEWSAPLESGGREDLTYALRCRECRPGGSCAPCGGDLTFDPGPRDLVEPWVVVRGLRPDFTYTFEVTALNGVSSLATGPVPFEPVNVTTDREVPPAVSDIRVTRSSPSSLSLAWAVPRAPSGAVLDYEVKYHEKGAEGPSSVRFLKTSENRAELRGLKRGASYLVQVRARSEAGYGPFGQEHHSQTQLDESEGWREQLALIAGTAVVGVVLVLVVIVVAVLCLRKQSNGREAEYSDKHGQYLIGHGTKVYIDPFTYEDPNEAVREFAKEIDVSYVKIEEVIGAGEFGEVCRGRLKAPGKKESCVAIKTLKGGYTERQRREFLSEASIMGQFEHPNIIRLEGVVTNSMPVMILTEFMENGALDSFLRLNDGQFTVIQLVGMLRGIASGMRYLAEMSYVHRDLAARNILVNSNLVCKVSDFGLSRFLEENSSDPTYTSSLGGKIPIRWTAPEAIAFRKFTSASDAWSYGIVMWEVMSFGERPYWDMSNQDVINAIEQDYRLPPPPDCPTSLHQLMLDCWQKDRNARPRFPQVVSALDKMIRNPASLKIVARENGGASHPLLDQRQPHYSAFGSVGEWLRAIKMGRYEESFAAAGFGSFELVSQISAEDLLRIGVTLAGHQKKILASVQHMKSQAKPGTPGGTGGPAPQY
Chain of AP2-associated protein kinase 1 (Q2M2I8 whole entry, the tested form may be a part): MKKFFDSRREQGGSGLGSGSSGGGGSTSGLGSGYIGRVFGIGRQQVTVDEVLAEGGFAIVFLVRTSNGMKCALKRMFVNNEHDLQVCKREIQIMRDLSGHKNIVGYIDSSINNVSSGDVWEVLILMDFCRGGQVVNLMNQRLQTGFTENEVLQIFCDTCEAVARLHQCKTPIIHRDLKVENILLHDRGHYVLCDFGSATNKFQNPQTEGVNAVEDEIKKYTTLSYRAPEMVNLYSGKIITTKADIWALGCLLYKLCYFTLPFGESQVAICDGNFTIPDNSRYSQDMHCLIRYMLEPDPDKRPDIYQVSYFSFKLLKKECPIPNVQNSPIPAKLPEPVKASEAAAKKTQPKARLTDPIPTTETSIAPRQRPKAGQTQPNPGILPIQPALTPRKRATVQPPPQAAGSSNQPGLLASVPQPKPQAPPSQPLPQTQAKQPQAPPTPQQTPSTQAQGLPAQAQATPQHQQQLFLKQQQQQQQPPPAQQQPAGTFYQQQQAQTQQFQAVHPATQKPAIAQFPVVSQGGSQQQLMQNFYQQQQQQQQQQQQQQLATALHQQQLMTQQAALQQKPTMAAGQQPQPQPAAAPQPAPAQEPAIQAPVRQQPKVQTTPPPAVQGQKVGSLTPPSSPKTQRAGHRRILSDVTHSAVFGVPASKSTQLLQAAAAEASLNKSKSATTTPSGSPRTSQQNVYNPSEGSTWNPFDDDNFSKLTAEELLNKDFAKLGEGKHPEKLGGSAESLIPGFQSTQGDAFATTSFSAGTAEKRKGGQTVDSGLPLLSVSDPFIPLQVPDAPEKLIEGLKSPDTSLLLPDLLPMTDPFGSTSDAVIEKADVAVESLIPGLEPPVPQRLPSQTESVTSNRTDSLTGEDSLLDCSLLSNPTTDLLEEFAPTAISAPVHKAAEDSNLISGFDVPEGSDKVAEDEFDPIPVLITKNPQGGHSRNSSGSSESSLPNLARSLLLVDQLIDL
Chain of Discoidin domain-containing receptor 2 (Q16832 whole entry, the tested form may be a part): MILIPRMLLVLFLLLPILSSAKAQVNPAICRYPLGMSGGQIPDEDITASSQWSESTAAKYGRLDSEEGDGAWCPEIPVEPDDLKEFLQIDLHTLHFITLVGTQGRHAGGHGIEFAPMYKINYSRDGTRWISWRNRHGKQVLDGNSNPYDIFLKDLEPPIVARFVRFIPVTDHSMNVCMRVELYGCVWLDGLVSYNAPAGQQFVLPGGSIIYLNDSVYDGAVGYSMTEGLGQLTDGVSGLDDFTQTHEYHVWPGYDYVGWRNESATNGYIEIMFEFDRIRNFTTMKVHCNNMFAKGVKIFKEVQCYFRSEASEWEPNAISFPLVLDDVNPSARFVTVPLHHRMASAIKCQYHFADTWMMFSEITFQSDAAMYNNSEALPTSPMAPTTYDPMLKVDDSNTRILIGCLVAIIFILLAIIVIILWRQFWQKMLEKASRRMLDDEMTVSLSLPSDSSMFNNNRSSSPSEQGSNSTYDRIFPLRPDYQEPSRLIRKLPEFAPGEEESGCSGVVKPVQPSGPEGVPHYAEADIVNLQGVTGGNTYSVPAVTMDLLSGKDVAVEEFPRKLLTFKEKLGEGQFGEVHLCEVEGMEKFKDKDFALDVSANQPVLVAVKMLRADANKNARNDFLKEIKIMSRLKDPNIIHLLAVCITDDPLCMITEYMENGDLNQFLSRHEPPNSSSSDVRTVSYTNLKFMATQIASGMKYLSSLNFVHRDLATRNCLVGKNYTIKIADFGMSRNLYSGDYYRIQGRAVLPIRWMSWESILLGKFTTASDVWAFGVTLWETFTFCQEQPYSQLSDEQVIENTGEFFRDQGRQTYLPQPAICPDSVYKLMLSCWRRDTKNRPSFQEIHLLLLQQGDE
Chain of Dual specificity protein kinase CLK2 (P49760 whole entry): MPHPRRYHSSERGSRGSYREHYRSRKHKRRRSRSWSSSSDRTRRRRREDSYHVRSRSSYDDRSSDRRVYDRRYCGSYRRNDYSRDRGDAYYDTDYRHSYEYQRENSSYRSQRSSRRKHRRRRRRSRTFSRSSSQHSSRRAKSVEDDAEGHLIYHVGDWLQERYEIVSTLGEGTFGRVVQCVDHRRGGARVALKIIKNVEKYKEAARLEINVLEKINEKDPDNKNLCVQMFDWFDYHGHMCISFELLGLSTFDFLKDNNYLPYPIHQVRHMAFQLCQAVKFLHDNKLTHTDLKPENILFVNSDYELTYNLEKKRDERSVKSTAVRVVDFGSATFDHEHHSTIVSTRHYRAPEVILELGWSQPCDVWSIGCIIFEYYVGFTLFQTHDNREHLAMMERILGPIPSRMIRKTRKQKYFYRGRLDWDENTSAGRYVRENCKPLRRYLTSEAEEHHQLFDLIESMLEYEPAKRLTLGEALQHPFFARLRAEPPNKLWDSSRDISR
Chain of Histone acetyltransferase KAT2B (Q92831 whole entry): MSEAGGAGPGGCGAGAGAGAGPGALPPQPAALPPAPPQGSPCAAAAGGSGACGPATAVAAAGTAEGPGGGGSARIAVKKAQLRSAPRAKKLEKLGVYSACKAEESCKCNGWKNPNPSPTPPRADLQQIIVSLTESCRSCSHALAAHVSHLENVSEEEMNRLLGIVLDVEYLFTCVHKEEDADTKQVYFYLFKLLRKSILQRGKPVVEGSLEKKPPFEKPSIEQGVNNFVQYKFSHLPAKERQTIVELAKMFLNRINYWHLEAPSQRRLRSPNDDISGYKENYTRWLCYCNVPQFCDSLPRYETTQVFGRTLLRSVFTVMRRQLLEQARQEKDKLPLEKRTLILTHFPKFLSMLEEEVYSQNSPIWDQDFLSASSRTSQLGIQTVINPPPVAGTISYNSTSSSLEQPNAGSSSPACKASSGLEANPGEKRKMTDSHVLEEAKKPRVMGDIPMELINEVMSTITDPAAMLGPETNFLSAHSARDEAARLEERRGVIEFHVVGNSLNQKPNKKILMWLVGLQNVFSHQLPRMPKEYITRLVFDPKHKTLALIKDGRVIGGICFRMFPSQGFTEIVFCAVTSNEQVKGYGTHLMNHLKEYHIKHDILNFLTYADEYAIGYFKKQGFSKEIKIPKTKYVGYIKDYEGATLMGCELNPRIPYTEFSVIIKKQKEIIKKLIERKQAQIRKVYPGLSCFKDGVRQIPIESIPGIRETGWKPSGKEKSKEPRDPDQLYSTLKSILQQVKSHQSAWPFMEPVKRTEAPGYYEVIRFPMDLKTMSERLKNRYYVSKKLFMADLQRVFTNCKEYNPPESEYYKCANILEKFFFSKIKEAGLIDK

Consider `Cc1ccc(C(=O)Nc2cccc(C(F)(F)F)c2)cc1Nc1nc(-c2cccnc2)nc2c1cnn2C`, for which, on Ephrin type-B receptor 4, the IC50 (in general, the concentration that gives 50% inhibition) is 6 nM.
Compound `Clc1cccc(-c2nnnn2Cc2cccnc2)c1Cl` returned an IC50 in experiment [1] of 67 nM.
With `CCC(=O)N1CCOc2c(cc(-c3ccc(OC)c(OC)c3)cc2OC[C@H]2CCCN(C)C2)C1`, the Kd (in general, the equilibrium constant for the complex coming apart) in [2] was determined as 625 nM.
On to `Cc1nc(N2CC[C@H](O)C2)ncc1-c1cc(C(F)(F)F)cc2[nH]ncc12`, for which the IC50 in [3] was 7 nM.
As for `CCOc1cn(-c2ccc(F)cc2C)nc1C(=O)Nc1ccc(Oc2ccnc3cc(OC)c(OC)cc23)c(F)c1`, in [4], 5 nM corresponded to half-maximal inhibition (IC50). In other words, the single-digit nanomolar range.
`CCNC(=O)c1cc2c(N3CCOC[C@@H]3C)ccnc2n1C` gave an IC50 in experiment [5] of over 20 µM.
Turning to `CC(C)C(=O)Nc1n[nH]c2cc(-c3cccc(NS(=O)(=O)C4CC4)c3)ccc12`, the Kd in experiment [6] is over 10 µM; in experiment [7], 8.8 µM.
For the compound `CN1CCN(Cc2cc(NC(=O)c3ccc4c(c3)CN(c3ccccc3)CC4)cc(C(F)(F)F)c2)CC1`, the half-maximal inhibitory concentration (IC50) is 6.25 µM in [8], 8.1 µM in experiment [9], over 10 µM in [10] and 1730 nM in experiment [11].
Compound `Cc1nnc2c3ccccc3c(N[C@@H](C)[C@H](c3ccccc3)N(C)C)nn12` came in with an IC50 in experiment [12] of 48 nM.
As for `Cn1cc(-c2ccc3occ(-c4ccccc4-c4ccccc4)c3n2)cn1`, the Ki in [13], in [14] and in [15] was over 10 µM throughout.
For the compound `Cc1c(C(=O)O)cc(-c2ccc(C3CCNCC3)cc2)c2ccc(-c3ccc(C(F)(F)F)cc3)cc12`, the midpoint of inhibition in experiment [16], the IC50, lay at 4.38 µM.
Compound `CN(C)C(=O)c1ccc(-c2cc(C(=O)N[C@@H]3CCc4ccccc43)no2)cc1O` came in with an IC50 against Protein AF-9 [17] of 160 nM. That is a sub-micromolar value.
In the case of `C[C@@H](c1cccc(CN)c1)n1cc(Cl)cc(C(N)=O)c1=N`, the Ki (commonly the dissociation constant of the complex between target and ligand, obtained from inhibition or displacement) in experiment [18] worked out at 1.6 nM.
`C=CC(=O)Nc1ccc2[nH]c(=O)n(C3CCN(C(=O)c4ccc(-c5nc6cc[nH]c(=O)c6cc5-c5ccccc5)cc4)CC3)c2c1` came in with an IC50 in experiment [19] of 9.2 µM.
Turning to `Cc1c(Nc2ccc(S(=O)(=O)N3CCN(C)CC3)cc2F)nc2ccc(Nc3cnn(C4CC4)c3)cn2c1=O`, the Kd in [20] was 1670 nM.
Regarding `O=C(NCCCN1CCOC1=O)c1cnc(NCc2cc(Br)ccc2Br)nc1NC1CCCC1`, in experiment [21], binding was characterised by a dissociation constant (Kd) of 22 nM.
For the compound `CN(C)C(=O)c1ccc(-c2cc(C(=O)N(C)C3CCCC3)no2)cc1O`, the IC50 against Protein AF-9 [22] and against Protein ENL was over 30 µM in each case.
